Measurements from article PMC9516332 (Frontiers in Oncology, 2022).
Where two headings read alike, the source gives them in different places.

Legend:
Test in all cases: Kinase panel profiling at 1 µmol/L (MSA or IMAP), percentage inhibition
Type in all cases: biochemical
[1] = target: T1, panel of 255 wild-type kinases (Homo sapiens, UniProt P36888); details: read-out: %-inhibition at 1 µmol/L, FLT3
T1 sequence (P36888 27-993): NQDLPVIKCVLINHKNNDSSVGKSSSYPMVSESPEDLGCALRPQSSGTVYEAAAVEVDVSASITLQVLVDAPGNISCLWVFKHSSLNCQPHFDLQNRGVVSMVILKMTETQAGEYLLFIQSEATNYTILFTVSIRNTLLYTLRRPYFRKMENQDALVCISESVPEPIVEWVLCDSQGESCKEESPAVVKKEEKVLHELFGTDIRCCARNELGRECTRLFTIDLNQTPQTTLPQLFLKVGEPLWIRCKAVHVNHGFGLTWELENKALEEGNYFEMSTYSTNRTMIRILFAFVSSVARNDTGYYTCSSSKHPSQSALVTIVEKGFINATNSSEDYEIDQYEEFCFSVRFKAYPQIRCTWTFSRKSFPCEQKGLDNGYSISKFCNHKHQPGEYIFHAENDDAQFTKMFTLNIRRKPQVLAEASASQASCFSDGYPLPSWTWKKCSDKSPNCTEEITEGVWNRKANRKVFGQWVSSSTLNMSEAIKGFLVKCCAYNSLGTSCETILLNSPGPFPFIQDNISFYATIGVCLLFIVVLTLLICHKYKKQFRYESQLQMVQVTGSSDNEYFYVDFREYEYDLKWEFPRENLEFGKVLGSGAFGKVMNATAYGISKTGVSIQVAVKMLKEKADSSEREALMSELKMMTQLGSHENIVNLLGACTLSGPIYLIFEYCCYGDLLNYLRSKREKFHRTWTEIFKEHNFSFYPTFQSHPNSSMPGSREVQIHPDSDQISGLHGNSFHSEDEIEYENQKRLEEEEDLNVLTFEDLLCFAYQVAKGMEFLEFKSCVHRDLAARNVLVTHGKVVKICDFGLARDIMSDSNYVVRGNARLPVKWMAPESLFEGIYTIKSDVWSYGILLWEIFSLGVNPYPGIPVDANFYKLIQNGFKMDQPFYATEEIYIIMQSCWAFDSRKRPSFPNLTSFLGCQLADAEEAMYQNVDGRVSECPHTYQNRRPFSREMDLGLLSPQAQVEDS

[2] = target: T2, panel of 255 wild-type kinases (Homo sapiens, UniProt P53778); details: read-out: %-inhibition, p38γ
T2 sequence (P53778 1-367): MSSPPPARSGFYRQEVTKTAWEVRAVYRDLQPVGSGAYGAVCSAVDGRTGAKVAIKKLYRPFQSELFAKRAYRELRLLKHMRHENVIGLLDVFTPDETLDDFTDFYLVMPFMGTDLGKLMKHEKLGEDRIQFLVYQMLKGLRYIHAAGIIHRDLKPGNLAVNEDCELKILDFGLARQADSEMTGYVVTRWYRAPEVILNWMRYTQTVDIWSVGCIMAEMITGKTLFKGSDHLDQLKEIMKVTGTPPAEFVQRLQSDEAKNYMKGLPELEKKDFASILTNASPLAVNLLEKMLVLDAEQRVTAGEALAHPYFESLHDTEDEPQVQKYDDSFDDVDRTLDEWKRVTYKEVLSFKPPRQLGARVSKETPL

[3] = target: panel of 255 wild-type kinases (Homo sapiens, UniProt P54646); details: read-out: %-inhibition AMPKα2/β1/γ1
[4] = target: T3, panel of 255 wild-type kinases (Homo sapiens, UniProt Q9NZJ5); details: read-out: %-inhibition at 1 µmol/L, PEK
T3 sequence (Q9NZJ5 30-1116): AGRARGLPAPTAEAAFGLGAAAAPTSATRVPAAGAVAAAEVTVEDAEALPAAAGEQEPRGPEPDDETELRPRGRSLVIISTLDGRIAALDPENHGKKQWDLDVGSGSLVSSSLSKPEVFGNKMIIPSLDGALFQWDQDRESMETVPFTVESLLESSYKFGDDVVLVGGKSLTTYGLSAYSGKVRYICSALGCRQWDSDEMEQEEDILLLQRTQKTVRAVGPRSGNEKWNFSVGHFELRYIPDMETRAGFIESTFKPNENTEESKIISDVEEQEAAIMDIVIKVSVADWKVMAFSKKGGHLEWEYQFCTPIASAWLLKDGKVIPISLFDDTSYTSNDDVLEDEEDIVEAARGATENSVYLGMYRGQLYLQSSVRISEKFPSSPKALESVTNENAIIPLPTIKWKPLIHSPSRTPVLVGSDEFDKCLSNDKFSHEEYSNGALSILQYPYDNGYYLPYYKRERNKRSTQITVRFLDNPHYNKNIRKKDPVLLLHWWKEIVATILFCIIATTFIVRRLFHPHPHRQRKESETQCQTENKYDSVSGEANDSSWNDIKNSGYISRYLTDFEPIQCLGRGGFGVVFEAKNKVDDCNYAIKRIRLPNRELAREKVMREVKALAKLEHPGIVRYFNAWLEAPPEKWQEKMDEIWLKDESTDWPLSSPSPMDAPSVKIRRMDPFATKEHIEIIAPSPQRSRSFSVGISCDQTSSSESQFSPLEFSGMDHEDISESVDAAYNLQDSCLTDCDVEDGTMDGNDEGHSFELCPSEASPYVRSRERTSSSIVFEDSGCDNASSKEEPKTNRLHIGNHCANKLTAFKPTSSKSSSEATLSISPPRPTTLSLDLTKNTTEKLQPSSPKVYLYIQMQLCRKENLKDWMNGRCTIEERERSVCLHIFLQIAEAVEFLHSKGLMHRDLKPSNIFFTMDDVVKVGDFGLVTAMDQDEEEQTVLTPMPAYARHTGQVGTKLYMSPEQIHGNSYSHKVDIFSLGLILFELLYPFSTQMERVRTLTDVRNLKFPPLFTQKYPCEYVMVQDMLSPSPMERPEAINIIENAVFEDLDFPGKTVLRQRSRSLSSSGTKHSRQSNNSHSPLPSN

[5] = kinase FLT3, 1 µmol/L single concentration
[6] = p38γ, 1 µmol/L single concentration
[7] = AMPKα2/β1/γ1 kinase assay, 1 µmol/L single concentration
[8] = kinase PEK, 1 µmol/L single concentration

SMILES | inhibition at 1 µM [1, 5] | inhibition at 1 µM [2, 6] | inhibition at 1 µM [3, 7] | inhibition at 1 µM [4, 8] | inhibition at 1 µM [1] | inhibition at 1 µM [2] | inhibition at 1 µM [3] | inhibition at 1 µM [4]
Cc1nc(NC(=O)N2CCC[C@H]2C(N)=O)sc1-c1ccnc(C(C)(C)C(F)(F)F)c1 [alpelisib] | 6% | -6% | 2.22% | 10% |  |  |  | 
Cn1cc(-c2cc3c(N4CCN(c5ncc([C@@](C)(N)c6ccc(F)cc6)cn5)CC4)ncnn3c2)cn1 [avapritinib] | 100% | -0.867% | 3% | 1.51% |  |  |  | 
Cn1cnc2c(F)c(Nc3ccc(Br)cc3F)c(C(=O)NOCCO)cc21 [binimetinib] | 12% | 2% | -3.67% | 4.67% |  |  |  | 
CNC(=O)c1ccc(-c2cnc3ncc(Cc4ccc5ncccc5c4)n3n2)cc1F [capmatinib] |  |  |  |  | 50% | -1.26% | -1.21% | 4.25%
COc1cc2ncnc(Nc3ccc(F)c(Cl)c3)c2cc1NC(=O)/C=C/CN1CCCCC1 [dacomitinib] | 56% | 0.231% | -3% | 2.82% |  |  |  | 
C[C@H](Nc1ncnc2nc[nH]c12)c1cc2cccc(Cl)c2c(=O)n1-c1ccccc1 [duvelisib] | 10% | -4% | -0.155% | 5.65% |  |  |  | 
COC(=O)N[C@@H](C)CNc1nccc(-c2cn(C(C)C)nc2-c2cc(Cl)cc(NS(C)(=O)=O)c2F)n1 [encorafenib] | 9% | 3.2% | 0.723% | 9% |  |  |  | 
CN1CCN(c2ccc(C(=O)Nc3n[nH]c4ccc(Cc5cc(F)cc(F)c5)cc34)c(NC3CCOCC3)c2)CC1 [entrectinib] |  | -3% | 79% | 0.561% |  |  |  | 
CCc1nc(C(N)=O)c(Nc2ccc(N3CCC(N4CCN(C)CC4)CC3)c(OC)c2)nc1NC1CCOCC1 [gilteritinib] | 99% | -0.507% | 21% |  |  |  |  | 
CCN1CCN(c2ccc(Nc3cc(N(C)C(=O)Nc4c(Cl)c(OC)cc(OC)c4Cl)ncn3)cc2)CC1 [infigratinib] |  | -3% | -2% | 49% |  |  |  | 
O=C(Nc1cnn2ccc(N3CCC[C@@H]3c3cc(F)ccc3F)nc12)N1CC[C@H](O)C1 [larotrectinib] | 6% | 2.3% | -6% | 4% |  |  |  | 
C[C@H]1Oc2cc(cnc2N)-c2c(nn(C)c2C#N)CN(C)C(=O)c2ccc(F)cc21 [lorlatinib] | 13% | -4.48% | 2.22% | -1.65% |  |  |  | 
CCN1C(=O)N(c2c(F)c(OC)cc(OC)c2F)Cc2cnc3[nH]c(CN4CCOCC4)cc3c21 [pemigatinib] | 8% | 1.73% | -5% | 17% |  |  |  | 
FC(F)(F)c1ccc(CNc2ccc(Cc3c[nH]c4ncc(Cl)cc34)cn2)cn1 [pexidartinib] | 55% | 2.47% | -7% | -10% |  |  |  | 
CO[C@]1(C(=O)N[C@@H](C)c2ccc(-n3cc(F)cn3)nc2)CC[C@H](c2nc(C)cc(Nc3cc(C)[nH]n3)n2)CC1 [pralsetinib] | 101% | -1.77% | 83% | 2.26% |  |  |  | 
CCn1c(=O)c(-c2cc(NC(=O)Nc3ccccc3)c(F)cc2Br)cc2cnc(NC)cc21 [ripretinib] | 46% | 0.893% | -22% | 9% |  |  |  | 
COc1ccc(CN2C3CC2CN(c2ccc(-c4cc(OCC(C)(C)O)cn5ncc(C#N)c45)cn2)C3)cn1 [selpercatinib] | 99% | 0.277% | 28% | 2.16% |  |  |  | 
Cn1cnc2c(F)c(Nc3ccc(Br)cc3Cl)c(C(=O)NOCCO)cc21 [selumetinib] | 52% | -1.75% | 1.9% | -0.188% |  |  |  | 
Cc1cc(Nc2ncnc3ccc(NC4=NC(C)(C)CO4)cc23)ccc1Oc1ccn2ncnc2c1 [tucatinib] | 48% | -1.75% | -1.44% | 1.59% |  |  |  | 
C=CC(=O)N1CCC([C@@H]2CCNc3c(C(N)=O)c(-c4ccc(Oc5ccccc5)cc4)nn32)CC1 [zanubrutinib] | 22% | 4% | -5% | 2% |  |  |  | 
